Laboratory results reported in PubChem BioAssay (NCI).
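96-well plates; 48 h exposure; 5 concentrations. Endpoints by linear interpolation between flanking doses. Not reached: highest tested concentration assigned. TGI is the concentration that stops growth completely.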

Test system: UACC-257 melanoma
Assay: inhibition of tumour cell growth, NCI panel, 48 h

Row | Structure (SMILES) | TGI
1 | NC(Cc1ccccc1)C(=O)NC(Cc1ccccc1)NC(=O)C(Cc1c[nH]c2ccccc12)C(=O)O (configuration not stated) | > 100 µM
2 | CC(=O)CC1CCC(=O)/C=C/C(=O)OC(CC(C)=O)CCC(=O)/C=C/C(=O)O1 (configuration not stated) | 31.4 µM
3 | O=C1c2sc(-c3ccc(Cl)cc3)cc2-n2cccc21 | > 100 µM
4 | CC(C)C(NC(=O)Oc1ccccc1)C(=O)NC1c2c(Br)sc(Br)c2C(=O)C1O (configuration not stated) | 8.66 µM
5 | O=C1SC(SCc2ccccc2)=NC12CC2c1ccccc1 (configuration not stated) | 38.5 µM
6 | O=C1NC2(CCN(CCc3ccccc3)CC2)Oc2ccccc21 | > 100 µM
7 | Nc1ncc2c(n1)-c1ccccc1OC2N1CCCCC1 (configuration not stated) | > 100 µM
8 | Cc1ccc(S(=O)(=O)N2C3C=CC(C3)[C@@H]2C(Cl)(Cl)Cl)cc1 (some centres not stated) | 60.5 µM
9 | COCOC1/C=C/CCCCC(=O)C(C)C#CC1 (configuration not stated) | 19.5 µM
10 | C[N+]12C=CC=C1C(N1CCCC1)c1scc(-c3ccc(Br)cc3)c12 (configuration not stated) | > 51.9 µM
11 | C[C@]12c3c4cc(NC(=O)C(=O)NCc5ccc(-c6ccccn6)nc5)cc3Oc3cc(NC(=O)C(=O)NCc5ccc(-c6ccccn6)nc5)cc(c31)OC1C=C(NC(=O)C(=O)NCc3ccc(-c5ccccn5)nc3)C=C(O4)C12 (some centres not stated) | > 100 µM
12 | COC(=O)c1cccc(C)c1C1CN=NC12Cc1cc(C)cc(C)c1C2=O (configuration not stated) | > 100 µM
13 | O=C1c2ccccc2-n2nnnc2C2CSCN12 (configuration not stated) | > 100 µM
14 | C/C(=N\NC(N)=S)c1ccc2c(c1)Sc1ccccc1O2 | > 100 µM
15 | O=c1[nH]c(=O)c2c3n(cc2[nH]1)CCCCC3 | > 100 µM
16 | COc1ccc(C(C)NNC(=O)c2ccncc2)cc1OC (configuration not stated) | > 100 µM
17 | CCOC(=O)C12OC(OCC)(CC1(OCC)OCC)C1(CC1)C2=O (configuration not stated) | > 100 µM
18 | O=C(C(=O)n1ccc2ccccc21)n1ccc2ccccc21 | > 100 µM
19 | COc1ccc(C(SCCO)(c2ccccc2)c2ccc(OC)cc2)cc1 | 30.5 µM
20 | N#Cc1cccc(-n2[nH]c(=O)ccc2=O)c1 | > 100 µM
21 | CC(N)/C(N)=N/O (configuration not stated) | > 100 µM
22 | CCOC(=O)CCC(NC(=O)C(N)Cc1ccc(N(CCCl)CCCl)cc1)C(=O)OCC (configuration not stated) | 5.2 µM
23 | CCN(CC)CCCNC(=O)c1cc(-c2nccn2C)nc2ccccc12 | > 100 µM
24 | COc1ccccc1CC(=O)C(O)(C(F)(F)F)C(F)(F)F | > 100 µM
25 | COc1ccc2oc3c(C)cc4c(OC)nnc(OC)c4c3c2c1 | > 100 µM
26 | CC(C)=C[C@H]1C[C@H](C)[C@H]2CC[C@H](C)c3c2c1c(C)c1ncoc31 | 33.5 µM
27 | CCOC(=O)c1ccc(-c2cc(C)no2)[nH]1 | > 100 µM
28 | O=C1/C(=C\c2ccc(Cl)cc2Cl)Sc2scc(-c3ccc(O)c(O)c3)[n+]21 | 71.3 µM

Test system: MDA-MB-231 breast
Assay: inhibition of tumour cell growth, NCI panel, 48 h

Row | Structure (SMILES) | TGI
29 | CCCCCCc1cc2cc(-c3cn4ccsc4n3)c(=O)oc2cc1O | > 100 µM
30 | N#CSC#CCCC#CSC#N | 42 µM
31 | O=C(O)C1C2c3ccccc3C(c3ccccc32)C1C(=O)NCC1CC1 (configuration not stated) | > 100 µM
32 | COC(=O)[C@]1(C)CCC[C@@]2(C)C1CC[C@@]13C=C(C(C)C)[C@@H](CC1=O)CC23 (some centres not stated) | 95.7 µM
33 | O=c1c(F)cn(Cc2c(Cl)cccc2Cl)c(=O)n1Cc1c(Cl)cccc1Cl | > 31.6 µM
34 | C=CCNC(=S)N/C=C(\C#N)C(N)=O | > 100 µM
35 | O=c1[nH]c(=O)n(C2COC(CO)C2O)cc1F (configuration not stated) | > 100 µM
36 | O=[N+]([O-])c1ccc2nc(Nc3ccccc3)c(Nc3ccccc3)nc2c1 | 2.64 µM
37 | COc1ccc(C2=CC(C(C)=C(C(N)=O)C(N)=O)C=C(c3ccc(Br)cc3)C2)c(OC)c1 (configuration not stated) | > 100 µM
38 | CC(C)(CN1CCCCC1)C(/C=C/c1ccc(Cl)cc1)=N\NC(=O)N/N=C(/C=C/c1ccc(Cl)cc1)C(C)(C)CN1CCCCC1 | 7.21 µM
39 | NC(Cc1ccccc1)C(=O)NC(Cc1ccccc1)NC(=O)C(Cc1c[nH]c2ccccc12)C(=O)O (configuration not stated) | > 100 µM
40 | CC(=O)CC1CCC(=O)/C=C/C(=O)OC(CC(C)=O)CCC(=O)/C=C/C(=O)O1 (configuration not stated) | 15 µM
41 | O=C1c2sc(-c3ccc(Cl)cc3)cc2-n2cccc21 | > 100 µM
42 | CC(C)C(NC(=O)Oc1ccccc1)C(=O)NC1c2c(Br)sc(Br)c2C(=O)C1O (configuration not stated) | 9.41 µM
43 | O=C1SC(SCc2ccccc2)=NC12CC2c1ccccc1 (configuration not stated) | 43.5 µM
44 | O=C1NC2(CCN(CCc3ccccc3)CC2)Oc2ccccc21 | > 100 µM
45 | Nc1ncc2c(n1)-c1ccccc1OC2N1CCCCC1 (configuration not stated) | > 100 µM
46 | Cc1ccc(S(=O)(=O)N2C3C=CC(C3)[C@@H]2C(Cl)(Cl)Cl)cc1 (some centres not stated) | 33.3 µM
47 | COCOC1/C=C/CCCCC(=O)C(C)C#CC1 (configuration not stated) | 15.6 µM

Row | Structure (SMILES) | TGI
48 | C[N+]12C=CC=C1C(N1CCCC1)c1scc(-c3ccc(Br)cc3)c12 (configuration not stated) | > 93.8 µM
49 | C[C@]12c3c4cc(NC(=O)C(=O)NCc5ccc(-c6ccccn6)nc5)cc3Oc3cc(NC(=O)C(=O)NCc5ccc(-c6ccccn6)nc5)cc(c31)OC1C=C(NC(=O)C(=O)NCc3ccc(-c5ccccn5)nc3)C=C(O4)C12 (some centres not stated) | 27.5 µM
50 | COC(=O)c1cccc(C)c1C1CN=NC12Cc1cc(C)cc(C)c1C2=O (configuration not stated) | 77.6 µM
51 | O=C1c2ccccc2-n2nnnc2C2CSCN12 (configuration not stated) | > 100 µM
52 | C/C(=N\NC(N)=S)c1ccc2c(c1)Sc1ccccc1O2 | > 100 µM
53 | O=c1[nH]c(=O)c2c3n(cc2[nH]1)CCCCC3 | > 100 µM
54 | COc1ccc(C(C)NNC(=O)c2ccncc2)cc1OC (configuration not stated) | > 100 µM
55 | CCOC(=O)C12OC(OCC)(CC1(OCC)OCC)C1(CC1)C2=O (configuration not stated) | > 100 µM
56 | O=C(C(=O)n1ccc2ccccc21)n1ccc2ccccc21 | > 100 µM
57 | COc1ccc(C(SCCO)(c2ccccc2)c2ccc(OC)cc2)cc1 | 25.4 µM
58 | CC(N)/C(N)=N/O (configuration not stated) | > 100 µM
59 | CCOC(=O)CCC(NC(=O)C(N)Cc1ccc(N(CCCl)CCCl)cc1)C(=O)OCC (configuration not stated) | 3.94 µM
60 | CCN(CC)CCCNC(=O)c1cc(-c2nccn2C)nc2ccccc12 | > 100 µM
61 | COc1ccccc1CC(=O)C(O)(C(F)(F)F)C(F)(F)F | > 100 µM
62 | COc1ccc2oc3c(C)cc4c(OC)nnc(OC)c4c3c2c1 | > 100 µM
63 | CC(C)=C[C@H]1C[C@H](C)[C@H]2CC[C@H](C)c3c2c1c(C)c1ncoc31 | 39.3 µM
64 | CCOC(=O)c1ccc(-c2cc(C)no2)[nH]1 | > 100 µM
65 | O=C1/C(=C\c2ccc(Cl)cc2Cl)Sc2scc(-c3ccc(O)c(O)c3)[n+]21 | 61.2 µM

Test system: DMS 114 small cell lung
Assay: inhibition of tumour cell growth, NCI panel, 48 h

Row | Structure (SMILES) | TGI
66 | N#Cc1cccc(-n2[nH]c(=O)ccc2=O)c1 | > 100 µM

Test system: KM20L2 colon
Assay: inhibition of tumour cell growth, NCI panel, 48 h

Row | Structure (SMILES) | TGI
67 | CCNC(=O)c1ccc(C)c(N=NN(C)C)c1 | > 100 µM
68 | N#Cc1cccc(-n2[nH]c(=O)ccc2=O)c1 | > 100 µM

Test system: OVCAR-4 ovarian
Assay: inhibition of tumour cell growth, NCI panel, 48 h

Row | Structure (SMILES) | TGI
69 | CCCCCCc1cc2cc(-c3cn4ccsc4n3)c(=O)oc2cc1O | > 100 µM
70 | N#CSC#CCCC#CSC#N | 58.5 µM
71 | O=C(O)C1C2c3ccccc3C(c3ccccc32)C1C(=O)NCC1CC1 (configuration not stated) | > 100 µM
72 | COC(=O)[C@]1(C)CCC[C@@]2(C)C1CC[C@@]13C=C(C(C)C)[C@@H](CC1=O)CC23 (some centres not stated) | > 100 µM
73 | O=c1c(F)cn(Cc2c(Cl)cccc2Cl)c(=O)n1Cc1c(Cl)cccc1Cl | > 31.6 µM
74 | CCNC(=O)c1ccc(C)c(N=NN(C)C)c1 | > 100 µM
75 | C=CCNC(=S)N/C=C(\C#N)C(N)=O | > 100 µM
76 | O=c1[nH]c(=O)n(C2COC(CO)C2O)cc1F (configuration not stated) | > 100 µM
77 | O=[N+]([O-])c1ccc2nc(Nc3ccccc3)c(Nc3ccccc3)nc2c1 | 11.3 µM
78 | COc1ccc(C2=CC(C(C)=C(C(N)=O)C(N)=O)C=C(c3ccc(Br)cc3)C2)c(OC)c1 (configuration not stated) | > 100 µM
79 | CC(C)(CN1CCCCC1)C(/C=C/c1ccc(Cl)cc1)=N\NC(=O)N/N=C(/C=C/c1ccc(Cl)cc1)C(C)(C)CN1CCCCC1 | 15 µM
80 | NC(Cc1ccccc1)C(=O)NC(Cc1ccccc1)NC(=O)C(Cc1c[nH]c2ccccc12)C(=O)O (configuration not stated) | > 100 µM
81 | CC(=O)CC1CCC(=O)/C=C/C(=O)OC(CC(C)=O)CCC(=O)/C=C/C(=O)O1 (configuration not stated) | 25.4 µM
82 | O=C1c2sc(-c3ccc(Cl)cc3)cc2-n2cccc21 | > 100 µM
83 | CC(C)C(NC(=O)Oc1ccccc1)C(=O)NC1c2c(Br)sc(Br)c2C(=O)C1O (configuration not stated) | 6.41 µM
84 | O=C1SC(SCc2ccccc2)=NC12CC2c1ccccc1 (configuration not stated) | 51.7 µM
85 | O=C1NC2(CCN(CCc3ccccc3)CC2)Oc2ccccc21 | > 100 µM
86 | Nc1ncc2c(n1)-c1ccccc1OC2N1CCCCC1 (configuration not stated) | > 100 µM
87 | Cc1ccc(S(=O)(=O)N2C3C=CC(C3)[C@@H]2C(Cl)(Cl)Cl)cc1 (some centres not stated) | > 77.1 µM
88 | COCOC1/C=C/CCCCC(=O)C(C)C#CC1 (configuration not stated) | 24.4 µM

Row | Structure (SMILES) | TGI
89 | C[N+]12C=CC=C1C(N1CCCC1)c1scc(-c3ccc(Br)cc3)c12 (configuration not stated) | > 100 µM
90 | C[C@]12c3c4cc(NC(=O)C(=O)NCc5ccc(-c6ccccn6)nc5)cc3Oc3cc(NC(=O)C(=O)NCc5ccc(-c6ccccn6)nc5)cc(c31)OC1C=C(NC(=O)C(=O)NCc3ccc(-c5ccccn5)nc3)C=C(O4)C12 (some centres not stated) | 29.8 µM
91 | COC(=O)c1cccc(C)c1C1CN=NC12Cc1cc(C)cc(C)c1C2=O (configuration not stated) | > 100 µM
92 | O=C1c2ccccc2-n2nnnc2C2CSCN12 (configuration not stated) | > 100 µM
93 | C/C(=N\NC(N)=S)c1ccc2c(c1)Sc1ccccc1O2 | 57.1 µM
94 | O=c1[nH]c(=O)c2c3n(cc2[nH]1)CCCCC3 | > 100 µM
95 | COc1ccc(C(C)NNC(=O)c2ccncc2)cc1OC (configuration not stated) | > 100 µM
96 | CCOC(=O)C12OC(OCC)(CC1(OCC)OCC)C1(CC1)C2=O (configuration not stated) | > 100 µM
97 | O=C(C(=O)n1ccc2ccccc21)n1ccc2ccccc21 | 78 µM
98 | COc1ccc(C(SCCO)(c2ccccc2)c2ccc(OC)cc2)cc1 | 49.1 µM
99 | N#Cc1cccc(-n2[nH]c(=O)ccc2=O)c1 | > 100 µM
100 | CC(N)/C(N)=N/O (configuration not stated) | > 100 µM
101 | CCOC(=O)CCC(NC(=O)C(N)Cc1ccc(N(CCCl)CCCl)cc1)C(=O)OCC (configuration not stated) | 1.38 µM
102 | CCN(CC)CCCNC(=O)c1cc(-c2nccn2C)nc2ccccc12 | > 100 µM
103 | COc1ccccc1CC(=O)C(O)(C(F)(F)F)C(F)(F)F | > 100 µM
104 | COc1ccc2oc3c(C)cc4c(OC)nnc(OC)c4c3c2c1 | > 100 µM
105 | CC(C)=C[C@H]1C[C@H](C)[C@H]2CC[C@H](C)c3c2c1c(C)c1ncoc31 | 34.1 µM
106 | CCOC(=O)c1ccc(-c2cc(C)no2)[nH]1 | > 100 µM
107 | O=C1/C(=C\c2ccc(Cl)cc2Cl)Sc2scc(-c3ccc(O)c(O)c3)[n+]21 | 35.8 µM
